Source: paper PMC11579512, “Deoxybouvardin-glucoside induces apoptosis in non-small cell lung cancer cells by targeting EGFR/MET and AKT signaling pathway” (EXCLI Journal, 2024)

Legend:
cyclin D1 = experiment: Immunoblot cyclin D1 in HCC827 and HCC827GR cells; type: cell-based, human; details: for cyclinD1 protein ratio: relative to DBG 0 nM = 1.00
Experimental: (§1) HaCaT cells were grown in DMEM, whereas HCC827 and HCC827GR cells were grown in RPMI 1640. All culture media were supplemented with FBS (10 %) and P/S (1 %), and the cells were grown at 37 °C in 5 % CO2.
(§2) Cells were lysed in RIPA buffer, and protein concentration was determined using a Bio-Rad DC Protein Assay kit (Bio-Rad, Hercules, CA, USA). Protein samples from the cell lysates were resolved by sodium dodecyl sulfate-polyacrylamide gel electrophoresis and then transferred onto polyvinylidene fluoride membranes. The membranes were blocked with 3 % or 5 % skim milk and then incubated at 4 °C overnight with the indicated primary antibodies, followed by the corresponding horseradish peroxidase-conjugated secondary antibodies at RT for 2 h. Protein bands were visualized using western blotting luminol reagent solution and ImageQuant LAS 500 (GE Healthcare, Uppsala, Sweden). The density of the bands was quantified using ImageJ software (NIH, Bethesda, MD, USA).

cytochrome c (cytosol) = experiment: Immunoblot cytosolic cytochrome c in HCC827 and HCC827GR cells; type: cell-based, human
Experimental: as §2
The cells were suspended in plasma membrane extraction buffer [250 mM sucrose, 10 mM HEPES (pH 8.0), 10 mM KCl, 1.5 mM MgCl2• 6H2O, 1 mM EGTA, 1 mM EDTA, 0.1 mM PMSF, 0.01 mg/ml aprotinin, and 0.01 mg/ml leupeptin], and 0.1 % digitonin was added for vortexing (1 min). The supernatant was collected as the cytosolic fraction. The pellet was resuspended in plasma membrane extraction buffer containing 0.5 % Triton X-100. The lysates were centrifuged at 13,000 rpm for 30 min to separate the mitochondrial fraction.

AKT1 = target: T1, AKT1 (Homo sapiens, UniProt P31749); experiment: In vitro ADP-Glo kinase assay, AKT1; type: biochemical
T1 construct: purchased Promega
Experimental: Subsequently, each well was added with ADP-Glo reagent and incubated for another 40 min. After completion of the kinase reaction, each well was added with kinase activity detection reagent and then incubated for 30 min. Liquid was dispensed with I.DOT (Dispendix, Stuttgart, Germany). Luminescence was measured on a Centro LB 960 microplate luminometer (Berthold Technologies).

CDK2 = experiment: Immunoblot CDK2 in HCC827 and HCC827GR cells; type: cell-based, human; details: for CDK2 protein ratio: relative to DBG 0 nM = 1.00
Experimental: as §1, §2

p-AKT (S473) = experiment: Western blot p-AKT (S473) in HCC827 and HCC827GR cells; type: cell-based, human; details: DBG 3, 6, 12 nM, 48 h
Experimental: as §1, §2

PARP = experiment: Immunoblot PARP in HCC827 and HCC827GR cells; type: cell-based, human; details: for PARP protein Ratio: DBG 0 nM = 1.00
Experimental: as §1, §2

HCC827 cells [1] = experiment: Intracellular ROS (Muse Oxidative Stress Kit), HCC827; type: cell-based, human; details: 48 h, control 7.32 %
Experimental: as §1
The levels of intracellular ROS were measured using a Muse™ Oxidative Stress Kit (MCH100111, Merck Millipore) in accordance with the manufacturer's instructions. The cells were incubated with a Muse™ Oxidative Stress Reagent working solution in the dark at 37 °C for 30 min. Intracellular ROS generation was measured using a Muse™ Cell Analyzer.

caspase-3 = experiment: Immunoblot caspase-3 with NAC pretreatment, HCC827 and HCC827GR cells; type: cell-based, human; details: for caspase3 protein Ratio: control = 1.00
Experimental: as §1, §2

HCC827 cells [2] = experiment: MTT viability after NAC pretreatment, HCC827; type: cell-based, human; details: for cell viability (relative to untreated = 100.00): HCC827
Experimental: All culture media were supplemented with FBS (10 %) and P/S (1 %), and the cells were grown at 37 °C in 5 % CO2.
The cells were treated with MTT and incubated for 2 h. The supernatants were removed, and the remaining formazan crystals were dissolved in DMSO before absorbance measurement at 570 nm using a Multiscan GO spectrophotometer (Thermo Fisher Scientific, Vantaa, Finland).

p27 = experiment: Immunoblot p27 in HCC827 and HCC827GR cells; type: cell-based, human
Experimental: as §1, §2

T1 sequence (P31749 whole entry): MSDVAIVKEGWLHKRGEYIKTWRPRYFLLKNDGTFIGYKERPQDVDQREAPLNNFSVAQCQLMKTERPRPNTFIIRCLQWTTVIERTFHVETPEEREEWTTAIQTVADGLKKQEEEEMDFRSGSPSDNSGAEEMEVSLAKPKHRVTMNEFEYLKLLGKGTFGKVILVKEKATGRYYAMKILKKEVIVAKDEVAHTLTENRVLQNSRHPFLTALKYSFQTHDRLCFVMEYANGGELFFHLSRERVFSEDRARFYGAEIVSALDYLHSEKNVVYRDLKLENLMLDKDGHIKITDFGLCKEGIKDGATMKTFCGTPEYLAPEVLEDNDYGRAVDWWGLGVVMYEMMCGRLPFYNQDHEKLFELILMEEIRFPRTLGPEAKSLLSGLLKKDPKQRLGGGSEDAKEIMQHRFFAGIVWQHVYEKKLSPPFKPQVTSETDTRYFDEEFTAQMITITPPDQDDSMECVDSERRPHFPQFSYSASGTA

IC50 (AKT1; ADP-Glo, AKT1 10 ng, RT, 60 min, luminescence, n=3): 6.86 nM
kinase activity, in words (AKT1; DBG 3, 6, 12 nM): significantly inhibited
Compound: COc1ccc(C[C@H]2C(=O)N[C@@H](C)C(=O)N(C)[C@H]3Cc4ccc(cc4)Oc4cc(ccc4O[C@@H]4O[C@H](CO)[C@@H](O)[C@H](O)[C@H]4O)C[C@@H](C(=O)N[C@H](C)C(=O)N[C@@H](C)C(=O)N2C)N(C)C3=O)cc1 [DBG, deoxybouvardin glucoside]
level of cyclin D1 (cyclin D1; DBG 3, 6, 12 nM, 48 h): significantly decreased
cyclinD1 protein/actin (cyclin D1; HCC827, DBG 3 nM, DBG 0 nM 0.51): 0.23
cyclinD1 protein ratio (cyclin D1; HCC827, DBG 3 nM): 0.46
cyclinD1 protein/actin (cyclin D1; HCC827, DBG 6 nM, DBG 0 nM 0.51): 0.14
cyclinD1 protein ratio (cyclin D1; HCC827, DBG 6 nM): 0.27
cyclinD1 protein/actin (cyclin D1; HCC827, DBG 12 nM, DBG 0 nM 0.51): 0.09
cyclinD1 protein ratio (cyclin D1; HCC827, DBG 12 nM): 0.17
cyclinD1 protein/actin (cyclin D1; HCC827GR, DBG 3 nM, DBG 0 nM 0.73): 0.37
cyclinD1 protein ratio (cyclin D1; HCC827GR, DBG 3 nM): 0.51
cyclinD1 protein/actin (cyclin D1; HCC827GR, DBG 6 nM, DBG 0 nM 0.73): 0.33
cyclinD1 protein ratio (cyclin D1; HCC827GR, DBG 6 nM): 0.45
cyclinD1 protein/actin (cyclin D1; HCC827GR, DBG 12 nM, DBG 0 nM 0.73): 0.41
cyclinD1 protein ratio (cyclin D1; HCC827GR, DBG 12 nM): 0.57
cyto c (cytosol) cyto c/β-tubulin/actin (A) (cytochrome c (cytosol); HCC827, DBG 3 nM, DBG 0 nM 12.22): 16.55
cyto c (cytosol) protein Ratio (cytochrome c (cytosol); HCC827, DBG 3 nM, relative to DBG 12 nM = 1.00, DBG 0 nM 0.18): 0.25
cyto c (cytosol) cyto c/β-tubulin/actin (A) (cytochrome c (cytosol); HCC827, DBG 6 nM, DBG 0 nM 12.22): 47.59
cyto c (cytosol) protein Ratio (cytochrome c (cytosol); HCC827, DBG 6 nM, relative to DBG 12 nM = 1.00, DBG 0 nM 0.18): 0.72
cyto c (cytosol) protein Ratio (cytochrome c (cytosol); HCC827, DBG 12 nM (reference of the ratio, 1.00), DBG 0 nM 0.18): 1.00
cyto c (cytosol) cyto c/β-tubulin/actin (A) (cytochrome c (cytosol); HCC827, DBG 12 nM, DBG 0 nM 12.22): 66.24
cyto c (cytosol) cyto c/β-tubulin/actin (A) (cytochrome c (cytosol); HCC827GR, DBG 3 nM, DBG 0 nM 5.99): 33.57
cyto c (cytosol) protein Ratio (cytochrome c (cytosol); HCC827GR, DBG 3 nM, relative to DBG 12 nM = 1.00, DBG 0 nM 0.07): 0.41
cyto c (cytosol) cyto c/β-tubulin/actin (A) (cytochrome c (cytosol); HCC827GR, DBG 6 nM, DBG 0 nM 5.99): 49.49
cyto c (cytosol) protein Ratio (cytochrome c (cytosol); HCC827GR, DBG 6 nM, relative to DBG 12 nM = 1.00, DBG 0 nM 0.07): 0.60
cyto c (cytosol) protein Ratio (cytochrome c (cytosol); HCC827GR, DBG 12 nM (reference of the ratio, 1.00), DBG 0 nM 0.07): 1.00
cyto c (cytosol) cyto c/β-tubulin/actin (A) (cytochrome c (cytosol); HCC827GR, DBG 12 nM, DBG 0 nM 5.99): 82.76
cytochrome c release (cytochrome c (cytosol); NSCLC cells, DBG, cytosolic and mitochondrial fractions): released from the mitochondria
level of CDKs (CDK2) (CDK2; DBG 3, 6, 12 nM, 48 h): significantly decreased
CDK2 protein/actin (CDK2; HCC827, DBG 3 nM, DBG 0 nM 0.56): 0.43
CDK2 protein ratio (CDK2; HCC827, DBG 3 nM): 0.77
CDK2 protein/actin (CDK2; HCC827, DBG 6 nM, DBG 0 nM 0.56): 0.20
CDK2 protein ratio (CDK2; HCC827, DBG 6 nM): 0.36
CDK2 protein/actin (CDK2; HCC827, DBG 12 nM, DBG 0 nM 0.56): 0.17
CDK2 protein ratio (CDK2; HCC827, DBG 12 nM): 0.30
CDK2 protein/actin (CDK2; HCC827GR, DBG 3 nM, DBG 0 nM 0.58): 0.44
CDK2 protein ratio (CDK2; HCC827GR, DBG 3 nM): 0.76
CDK2 protein/actin (CDK2; HCC827GR, DBG 6 nM, DBG 0 nM 0.58): 0.36
CDK2 protein ratio (CDK2; HCC827GR, DBG 6 nM): 0.62
CDK2 protein/actin (CDK2; HCC827GR, DBG 12 nM, DBG 0 nM 0.58): 0.25
CDK2 protein ratio (CDK2; HCC827GR, DBG 12 nM): 0.44
phosphorylation level of AKT (p-AKT (S473)): decreased
PARP protein/actin (PARP; HCC827, DBG 3 nM, DBG 0 nM 0.88): 0.17
PARP protein Ratio (PARP; HCC827, DBG 3 nM): 0.20
PARP protein/actin (PARP; HCC827, DBG 6 nM, DBG 0 nM 0.88): 0.14
PARP protein Ratio (PARP; HCC827, DBG 6 nM): 0.16
PARP protein/actin (PARP; HCC827, DBG 12 nM, DBG 0 nM 0.88): 0.15
PARP protein Ratio (PARP; HCC827, DBG 12 nM): 0.17
PARP protein/actin (PARP; HCC827GR, DBG 3 nM, DBG 0 nM 0.78): 0.46
PARP protein Ratio (PARP; HCC827GR, DBG 3 nM): 0.59
PARP protein/actin (PARP; HCC827GR, DBG 6 nM, DBG 0 nM 0.78): 0.23
PARP protein Ratio (PARP; HCC827GR, DBG 6 nM): 0.29
PARP protein/actin (PARP; HCC827GR, DBG 12 nM, DBG 0 nM 0.78): 0.12
PARP protein Ratio (PARP; HCC827GR, DBG 12 nM): 0.16
level of whole PARP (PARP; HCC827 and HCC827GR, DBG): decreased
ROS level (HCC827 cells [1]; DBG 3 nM): 18.40%
ROS level (HCC827 cells [1]; DBG 6 nM): 47.32%
ROS level (HCC827 cells [1]; DBG 12 nM): 70.22%
caspase3 protein/actin (caspase-3; HCC827, DBG 12 nM, control 0.39): 0.07
caspase3 protein Ratio (caspase-3; HCC827, DBG 12 nM): 0.18
caspase3 protein/actin (caspase-3; HCC827, NAC 4 mM + DBG 12 nM, control 0.39): 0.60
caspase3 protein Ratio (caspase-3; HCC827, NAC 4 mM + DBG 12 nM): 1.53
caspase3 protein/actin (caspase-3; HCC827GR, DBG 12 nM, control 0.59): 0.24
caspase3 protein Ratio (caspase-3; HCC827GR, DBG 12 nM): 0.41
caspase3 protein/actin (caspase-3; HCC827GR, NAC 4 mM + DBG 12 nM, control 0.59): 0.45
caspase3 protein Ratio (caspase-3; HCC827GR, NAC 4 mM + DBG 12 nM): 0.77
cell viability (relative to untreated = 100.00) (HCC827 cells [2]; DBG 12 nM, mean of 3): 45.66
cell viability (relative to untreated = 100.00) (HCC827 cells [2]; DBG 12 nM, replicate 1): 44.99
cell viability (relative to untreated = 100.00) (HCC827 cells [2]; DBG 12 nM, replicate 2): 46.50
cell viability (relative to untreated = 100.00) (HCC827 cells [2]; DBG 12 nM, replicate 3): 45.48
cell viability (relative to untreated = 100.00) (HCC827 cells [2]; NAC 4 mM + DBG 12 nM, mean of 3): 94.90
cell viability (relative to untreated = 100.00) (HCC827 cells [2]; NAC 4 mM + DBG 12 nM, replicate 1): 97.37
cell viability (relative to untreated = 100.00) (HCC827 cells [2]; NAC 4 mM + DBG 12 nM, replicate 2): 92.86
cell viability (relative to untreated = 100.00) (HCC827 cells [2]; NAC 4 mM + DBG 12 nM, replicate 3): 94.46
anticancer activity of DBG after NAC pretreatment (HCC827 cells [2]; NAC 4 mM, 3 h, DBG 48 h): decreased
cytotoxicity after NAC pretreatment (HCC827 cells [2]; NAC 4 mM, DBG 12 nM): a little, if any, cytotoxicity only at 12 nM
level of p27 (p27; DBG, 48 h): increasing p27
p27 protein/actin (p27; HCC827, DBG 3 nM, DBG 0 nM 0.14): 0.14
p27 protein ratio (p27; HCC827, DBG 3 nM, relative to DBG 12 nM = 1.00, DBG 0 nM 0.34): 0.33
p27 protein/actin (p27; HCC827, DBG 6 nM, DBG 0 nM 0.14): 0.40
p27 protein ratio (p27; HCC827, DBG 6 nM, relative to DBG 12 nM = 1.00, DBG 0 nM 0.34): 0.96
p27 protein ratio (p27; HCC827, DBG 12 nM (set to 1.00), DBG 0 nM 0.34): 1.00
p27 protein/actin (p27; HCC827, DBG 12 nM, DBG 0 nM 0.14): 0.42
p27 protein/actin (p27; HCC827GR, DBG 3 nM, DBG 0 nM 0.06): 0.09
p27 protein ratio (p27; HCC827GR, DBG 3 nM, relative to DBG 12 nM = 1.00, DBG 0 nM 0.08): 0.11
p27 protein/actin (p27; HCC827GR, DBG 6 nM, DBG 0 nM 0.06): 0.69
p27 protein ratio (p27; HCC827GR, DBG 6 nM, relative to DBG 12 nM = 1.00, DBG 0 nM 0.08): 0.90
p27 protein ratio (p27; HCC827GR, DBG 12 nM (set to 1.00), DBG 0 nM 0.08): 1.00
p27 protein/actin (p27; HCC827GR, DBG 12 nM, DBG 0 nM 0.06): 0.77
